biological target: T1, γ-secretase (Homo sapiens, UniProt P49768); experiment: in vitro assay of γ-secretase activity (HEK293 membrane fraction, recombinant APP substrate, Abeta ELISA); format: biochemical; details: γ-secretase inhibition; HEK293 membrane fraction solubilized in 0.25% CHAPSO, recombinant human APP C-terminal 100 amino acids substrate, Abeta detected by ELISA
T1 construct: uses a HEK293 membrane fraction as a source of γ-secretase; endogenous in cells; host or cells: HEK293 (microsomal membrane fraction, solubilised in 0.25% CHAPSO)
Source text: Description of 1γ-Secretase Assay The activity of test compounds can be evaluated in assays which measure the proteolytic cleavage of suitable substrates by γ-secretase activity. These can be cellular assays where e.g., a substrate of the γ-secretase is fused in its cytoplasmic domain to a transcription factor. Cells are transfected with this fusion gene and a reporter gene, e.g., firefly luciferase, which expression is enhanced by the transcription factor. Cleavage of the fused substrate by γ-secretase will lead to expression of the reporter gene which can be monitored in appropriate assays. The γ-secretase activity can also be determined in cell-free in vitro assays where e.g., a cell lysate containing the γ-secretase complex is incubated with a suitable APP-derived substrate which is cleaved to the Abeta peptides. The amount of produced peptides can be determined with specific ELISA assays. Cell lines of neuronal origin secrete Abeta peptides which can be measured with the specific ELISA assay. Treatment with compounds which inhibit γ-secretase leads to a reduction of secreted Abeta thus providing a measure of inhibition. The in vitro assay of γ-secretase activity uses a HEK293 membrane fraction as a source of γ-secretase and a recombinant APP substrate. Latter consist of the C-terminal 100 amino acids of human APP fused to a 6× Histidin tail for purification which is expressed in E. coli in a regulatable expression vector, e.g. pEt15. This recombinant protein corresponds to the truncated APP fragment which results after […] of the extracellular domain and which constitutes the γ-secretase substrate. The assay principle is described in Li Y M et al, PNAS 97(11), 6138-6143 (2000). Hek293 cells are mechanically disrupted and the microsomal fraction is isolated by differential centrifugation. The membranes are solubilized in detergent (0.25% CHAPSO) and incubated with the APP substrate. The Abeta peptides which are produced by γ-secretase cleavage of the substrate are detected by specific ELISA assays as described (Brockhaus M et al, Neuroreport 9(7), 1481-1486 (1998).

| SMILES | IC50 [nM] |
| --- | --- |
| C[C@@](F)(C(=O)NCCC(F)(F)C(F)(F)F)C(=O)N[C@@H]1C(=O)N(CCO)c2ccccc2-c2ccccc21 [Example 42, (R)-2-Fluoro-N—[(S)-5-(2-hydroxy-ethyl)-6-oxo-6,7-dihydro-5H-dibenzo[b,d]azepin-7-yl]-2-methyl-N′-(3,3,4,4,4-pentafluoro-butyl)-malonamide] | 1 |
| CC(C)(C(=O)NCC(F)(F)C(F)(F)F)C(=O)N[C@@H]1C(=O)N(CC(O)C(F)(F)F)c2ccccc2-c2ccccc21 (stereo partly drawn) [Example 72, 2,2-Dimethyl-N—[(S)-6-oxo-5-(3,3,3-trifluoro-2-hydroxy-propyl)-6,7-dihydro-5H-dibenzo[b,d]azepin-7-yl]-N′-(2,2,3,3,3-pentafluoro-propyl)-malonamide] | 1 |
| C[C@](F)(C(=O)NCC(F)(F)C(F)(F)F)C(=O)N[C@@H]1C(=O)N(CCOCc2ccccc2)c2ccccc2-c2ccccc21 [Example 23, (S)—N—[(S)-5-(2-Benzyloxy-ethyl)-6-oxo-6,7-dihydro-5H-dibenzo[b,d]azepin-7-yl]-2-fluoro-2-methyl-N′-(2,2,3,3,3-pentafluoro-propyl)-malonamide] | 16 |
| CC(F)(C(=O)NCC(F)(F)C(F)(F)F)C(=O)N[C@@H]1C(=O)N(CCOCc2ccccc2)c2ccccc2-c2ccccc21 (stereo partly drawn) [Example 13, N—[(S)-5-(2-Benzyloxy-ethyl)-6-oxo-6,7-dihydro-5H-dibenzo[b,d]azepin-7-yl]-2-fluoro-2-methyl-N′-(2,2,3,3,3-pentafluoro-propyl)-malonamide] | 10 |
| CC(O)(C(=O)NCC(F)(F)C(F)(F)F)C(=O)N[C@@H]1C(=O)N(CCO)c2ccccc2-c2ccccc21 (single isomer, unassigned; epimer a) [Example 20] | 3 |
| C[C@H](OC(=O)NCC(F)(F)C(F)(F)F)C(=O)N[C@@H]1C(=O)N(CCO)c2ccccc2-c2ccccc21 [Example 8, (2,2,3,3,3-Pentafluoro-propyl)-carbamic acid (S)-1-[(S)-5-(2-hydroxy-ethyl)-6-oxo-6,7-dihydro-5H-dibenzo[b,d]azepin-7-ylcarbamoyl]-ethyl ester] | 6 |
| O=C(CC(=O)N[C@@H]1C(=O)N(CCOCc2ccccc2)c2ccccc2-c2ccccc21)NCCC(F)(F)C(F)(F)F [Example 29, N—[(S)-5-(2-Benzyloxy-ethyl)-6-oxo-6,7-dihydro-5H-dibenzo[b,d]azepin-7-yl]-N′-(3,3,4,4,4-pentafluoro-butyl)-malonamide] | 18 |
| COC(=O)CN1C(=O)[C@@H](NC(=O)C(C)C(=O)NCC(F)(F)C(F)(F)F)c2ccccc2-c2ccccc21 (stereo partly drawn) [Example 1, {(S)-6-Oxo-7-[2-(2,2,3,3,3-pentafluoro-propylcarbamoyl)-propionylamino]-6,7-dihydro-dibenzo[b,d]azepin-5-yl}-acetic acid methyl ester] | 10 |
| C[C@@](F)(C(=O)NCCC(F)(F)C(F)(F)F)C(=O)N[C@@H]1C(=O)N(CCOCc2ccccc2)c2ccccc2-c2ccccc21 [Example 40, (R)—N—[(S)-5-(2-Benzyloxy-ethyl)-6-oxo-6,7-dihydro-5H-dibenzo[b,d]azepin-7-yl]-2-fluoro-2-methyl-N′-(3,3,4,4,4-pentafluoro-butyl)-malonamide] | 5 |
| C[C@H](OC(=O)NCC(F)(F)F)C(=O)N[C@@H]1C(=O)N(CCOCc2ccccc2)c2ccccc2-c2ccccc21 [Example 37, (2,2,2-Trifluoro-ethyl)-carbamic acid (S)-1-[(S)-5-(2-benzyloxy-ethyl)-6-oxo-6,7-dihydro-5H-dibenzo[b,d]azepin-7-ylcarbamoyl]-ethyl ester] | 18 |
| CC(C)OCCN1C(=O)[C@@H](NC(=O)C(C)(C)C(=O)NCC(F)(F)C(F)(F)F)c2ccccc2-c2ccccc21 [Example 70, N—[(S)-5-(2-Isopropoxy-ethyl)-6-oxo-6,7-dihydro-5H-dibenzo[b,d]azepin-7-yl]-2,2-dimethyl-N′-(2,2,3,3,3-pentafluoro-propyl)-malonamide] | 7 |
| C[C@H](OC(=O)NCCC(F)(F)C(F)(F)F)C(=O)N[C@@H]1C(=O)N(CCOCc2ccccc2)c2ccccc2-c2ccccc21 [Example 36, (3,3,4,4,4-Pentafluoro-butyl)-carbamic acid (S)-1-[(S)-5-(2-benzyloxy-ethyl)-6-oxo-6,7-dihydro-5H-dibenzo[b,d]azepin-7-ylcarbamoyl]-ethyl ester] | 13 |
| CC(F)(C(=O)NCC(F)(F)C(F)(F)F)C(=O)N[C@@H]1C(=O)N(CCO)c2ccccc2-c2ccccc21 (stereo partly drawn) [Example 16, 2-Fluoro-N—[(S)-5-(2-hydroxy-ethyl)-6-oxo-6,7-dihydro-5H-dibenzo[b,d]azepin-7-yl]-2-methyl-N′-(2,2,3,3,3-pentafluoro-propyl)-malonamide] | 3 |
| CC(C)(C(=O)NCC(F)(F)C(F)(F)F)C(=O)N[C@@H]1C(=O)N(CCOCc2ccccc2)c2ccccc2-c2ccccc21 [Example 4, N—[(S)-5-(2-Benzyloxy-ethyl)-6-oxo-6,7-dihydro-5H-dibenzo[b,d]azepin-7-yl]-2,2-dimethyl-N′-(2,2,3,3,3-pentafluoro-propyl)-malonamide] | 9 |
| C[C@H](OC(=O)NCC(F)(F)C(F)(F)F)C(=O)N[C@@H]1C(=O)N(CCOCc2ccccc2)c2ccccc2-c2ccccc21 [Example 5, (2,2,3,3,3-Pentafluoro-propyl)-carbamic acid (S)-1-[(S)-5-(2-benzyloxy-ethyl)-6-oxo-6,7-dihydro-5H-dibenzo[b,d]azepin-7-ylcarbamoyl]-ethyl ester] | 11 |
| CC(C(=O)NCC(F)(F)C(F)(F)F)C(=O)N[C@@H]1C(=O)N(CCO)c2ccccc2-c2ccccc21 (stereo partly drawn) [Example 3, N—[(S)-5-(2-Hydroxy-ethyl)-6-oxo-6,7-dihydro-5H-dibenzo[b,d]azepin-7-yl]-2-methyl-N ′-(2,2,3,3,3-pentafluoro-propyl)-malonamide] | 1 |
| C[C@@](O)(C(=O)NCC(F)(F)F)C(=O)N[C@@H]1C(=O)N(CCOCc2ccccc2)c2ccccc2-c2ccccc21 [Example 57, (R)—N—[(S)-5-(2-Benzyloxy-ethyl)-6-oxo-6,7-dihydro-5H-dibenzo[b,d]azepin-7-yl]-2-hydroxy-2-methyl-N′-(2,2,2-trifluoro-ethyl)-malonamide] | 90 |
| O=C(CC(=O)N[C@@H]1C(=O)N(CCOCc2ccccc2)c2ccccc2-c2ccccc21)NCC(F)(F)C(F)(F)F [Example 7, N—[(S)-5-(2-Benzyloxy-ethyl)-6-oxo-6,7-dihydro-5H-dibenzo[b,d]azepin-7-yl]-N′-(2,2,3,3,3-pentafluoro-propyl)-malonamide] | 22 |
| C[C@](F)(C(=O)NCC(F)(F)F)C(=O)N[C@@H]1C(=O)N(CCO)c2ccccc2-c2ccccc21 [Example 49, (S)-2-Fluoro-N—[(S)-5-(2-hydroxy-ethyl)-6-oxo-6,7-dihydro-5H-dibenzo[b,d]azepin-7-yl]-2-methyl-N′-(2,2,2-trifluoro-ethyl)-malonamide] | 157 |
| COCCN1C(=O)[C@@H](NC(=O)[C@H](C)OC(=O)NCC(F)(F)C(F)(F)F)c2ccccc2-c2ccccc21 [Example 25, (2,2,3,3,3-Pentafluoro-propyl)-carbamic acid (S)-1-[(S)-5-(2-methoxy-ethyl)-6-oxo-6,7-dihydro-5H-dibenzo[b,d]azepin-7-ylcarbamoyl]-ethyl ester] | 6 |

Reference: patent publication US7425551B2, “Malonamide derivatives” (Hoffmann-La Roche Inc., priority 2006, dated 2008)
